Entries after “also recorded” stand apart in the source; their conditions may differ.
Columns and labels:
[1] = tested on: human skin fibroblast cell line (normal human dermal fibroblasts, neonatal); assay: Fibroblast proliferative response, 96-well Cell Titer 96 Aqueous One assay (Example 2, FIG. 2, Table 2); type: cell-based; conditions: for effect on cellular proliferation (in words): 5 and 10 ul, versus serum-free DMEM control, one-way ANOVA; for Mean (spectrophotometric absorbance at 490 nm) / Median (spectrophotometric absorbance at 490 nm): 28 hours incubation, n=5, Table 2
Description: A stock solution of CNA was prepared with chitosan (0.0297M) and equimolar amounts of ascorbic acid and niacinamide (0.01649M) in water. Test solutions of equimolar ascorbic acid and niacinamide (0.01649M) were prepared separately in water. All the compounds were tested at two doses, 5 and 10 ul with n=5. DMEM was used as a negative control (n=5). The proliferative response of CNA, ascorbic acid and niacinamide, on the human skin fibroblast cell line (Clonetics, Walkersville, Md., normal human dermal fibroblasts, neonatal) was measured in a 96-well assay system using serum-free DMEM (Dulbecco's Modified Eagle's Medium, Sigma Chemical Co.) as a control. Cells were seeded into 96 well plates at a concentration of 1×10^2 cells in 100 μl of DMEM containing 10% fetal bovine serum (FBS, Sigma Chemical Co., St. Louis, Mo.). Plates were incubated for 24 hours at 37° C. in a humidified 5% CO2 atmosphere. After incubation, the medium was aspirated and the wells were rinsed twice with 100 μl of serum-free DMEM. The final rinse was aspirated and 100 ul DMEM serum was added to each well before adding test compounds. All wells were incubated for 28 hours at 37° C. in a humidified, 5% CO2 atmosphere. After incubation, 20 μl of Cell Titer 96 Aqueous One Solution (Promega) was added to all wells. The plates were swirled gently and placed back in the incubator for 90 minutes and spectrophotometric absorbance was read at 490 nm. Statistical analysis of data was performed by using one-way ANOVA. P<0.05 is considered significant while P<0.001 is considered as very very significant.

[2] = tested on: human skin fibroblast cell line (normal human dermal fibroblasts, neonatal); assay: Fibroblast proliferative response, 96-well Cell Titer 96 Aqueous One assay (Example 1, FIG. 1, Table 1); type: cell-based; conditions: for Mean (spectrophotometric absorbance at 490 nm) / Median (spectrophotometric absorbance at 490 nm): 28 hours incubation, n=5, Table 1; for cell growth / cell density (OD), FIG. 1: control OD about 0.6
Description: A human skin fibroblast cell line was obtained from Clonetics (Walkersville, Md., normal human dermal fibroblasts, neonatal). Stock solutions of CNA were prepared with chitosan (0.0297M, degree of deacetylation 78.8%, Vanson Inc.) and equimolar amounts of ascorbic acid and niacinamide (0.01649M, Sigma Chemical Co.) in water. Test solutions of chitosan (0.0297M) and niacinamide ascorbate (0.01649M) were separately prepared. All the compounds were tested at two doses, 5 and 10 ul with n=5. DMEM was used as a negative control (n=5). The proliferative response of CNA, chitosan and NA, on the human skin fibroblast cell was measured in a 96-well assay system using serum-free DMEM (Dulbecco's Modified Eagle's Medium, Sigma Chemical Co.) as a control. Cells were seeded into 96 well plates at a concentration of 1×10^3 cells in 100 μl of DMEM containing 10% fetal bovine serum (FBS, Sigma Chemical Co., St. Louis, Mo.). Plates were incubated for 24 hours at 37° C. in a humidified 5% CO2 atmosphere. After incubation, the medium was aspirated and the wells were rinsed twice with 100 μl of serum-free DMEM. The final rinse was aspirated and 100 ul DMEM serum was added to each well before adding test compounds. All wells were incubated for 28 hours at 37° C. in a humidified, 5% CO2 atmosphere. After incubation, 20 μl of Cell Titer 96 Aqueous One Solution (Promega) was added to all wells. The plates were swirled gently and placed back in the incubator for 90 minutes and spectrophotometric absorbance was read at 490 nm. Statistical analysis of data was performed by using one-way ANOVA. P<0.05 is considered significant while P<0.001 is considered as very very significant.

[3] = group suffix 1 (doses were 5 and 10 ul)
[4] = group suffix 2 (doses were 5 and 10 ul)

O=C1O[C@H]([C@@H](O)CO)C(O)=C1O [Ascorbic acid, ascorbic acid]
effect on cellular proliferation (in words) [1]: some cell proliferating activity | Mean (spectrophotometric absorbance at 490 nm) [1, 3]: 0.4002 | Median (spectrophotometric absorbance at 490 nm) [1, 3]: 0.3990 | Mean (spectrophotometric absorbance at 490 nm) [1, 4]: 0.4598 | Median (spectrophotometric absorbance at 490 nm) [1, 4]: 0.4510

NC(=O)c1cccnc1.O=C1O[C@H]([C@@H](O)CO)C(O)=C1O [NA, niacinamide ascorbate]
effect on fibroblast growth / proliferation (in words) ([2]; 5 and 10 ul, versus serum-free DMEM control, one-way ANOVA): appeared to inhibit cellular growth in a dose dependent manner; also recorded: appears depress fibroblast cell growth | Mean (spectrophotometric absorbance at 490 nm) ([2]; 5 ul dose): 0.5650 | Median (spectrophotometric absorbance at 490 nm) ([2]; 5 ul dose): 0.5630 | cell growth / cell density (OD), FIG. 1 ([2]; 5 μl): about 0.58 | Mean (spectrophotometric absorbance at 490 nm) ([2]; 10 ul dose): 0.4826 | Median (spectrophotometric absorbance at 490 nm) ([2]; 10 ul dose): 0.4870 | cell growth / cell density (OD), FIG. 1 ([2]; 10 μl): about 0.50

NC(=O)c1cccnc1 [Niacinamide, niacinamide]
effect on cellular proliferation (in words) [1]: did not show any statistical difference | Mean (spectrophotometric absorbance at 490 nm) [1, 3]: 0.3108 | Median (spectrophotometric absorbance at 490 nm) [1, 3]: 0.3140 | Mean (spectrophotometric absorbance at 490 nm) [1, 4]: 0.3048 | Median (spectrophotometric absorbance at 490 nm) [1, 4]: 0.3070

— patent US7419655B2, “Skin care products” (Kimberly-Clark Worldwide, Inc., priority 2002, dated 2008)
